According to patent US6833372B2, “Non-peptide GnRH agents, Pharmaceutical compositions, and methods for their use” (Pfizer, Inc., priority 2002, dated 2004):
Where “and” joins values, the source holds several entries; their conditions need not be identical. Equal values may be shown once.

How the values were obtained:
[1] = In vitro metabolism: disappearance of parent compound in human liver microsomes; assay type: in vitro ADME; conditions: 5 uM compound, 0.5 mg/ml protein, 2 mM NADPH, 30 minutes 37° C.
Method: (§1) Human, rat, dog, and monkey liver microsomes were isolated by differential centrifugation. Specimens of human liver were obtained from the International Institute for the Advancement of Medicine (Scranton, Pa.). The disappearance of the parent compound was studied in a mixture containing 5 uM compound, 0.5 mg/ml microsomal protein, and 2 mM NADPH in 50 mM K phosphate buffer, pH 7.4. Samples were incubated for 30 minutes at 37° C. The reaction was terminated by the addition of acetonitrile and compounds analyzed by LC-MS as described above.

rat GnRH receptor = biological target: T1, rat GnRH receptor (Rattus norvegicus, UniProt P30969); test: Radioligand binding: inhibition of 125I-GnRH-A binding to rat GnRH receptor (rat pituitary membranes); conditions: read-out: Ki (nM), Inhibition Binding of 125I-GnRH-A to GnRH Receptors
T1 construct: or rat pituitaries (Pel Freez Biologicals, Rogers, Ark.) were homogenized; tissue Pel Freez Biologicals; host or cells: rat pituitaries (membrane preparation)
T1 sequence (P30969 1-327): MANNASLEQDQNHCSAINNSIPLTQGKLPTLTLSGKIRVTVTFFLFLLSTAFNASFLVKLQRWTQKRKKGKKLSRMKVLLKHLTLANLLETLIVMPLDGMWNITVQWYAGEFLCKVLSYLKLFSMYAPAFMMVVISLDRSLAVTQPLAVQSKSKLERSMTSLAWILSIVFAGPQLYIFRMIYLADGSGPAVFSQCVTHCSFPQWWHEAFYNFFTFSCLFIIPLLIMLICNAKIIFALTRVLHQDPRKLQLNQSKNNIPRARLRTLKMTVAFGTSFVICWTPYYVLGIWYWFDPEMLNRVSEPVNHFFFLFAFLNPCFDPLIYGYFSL
Method: HEK 293 cells containing mouse or human receptors, or rat pituitaries (Pel Freez Biologicals, Rogers, Ark.) were homogenized in buffer A containing: 50 mM Tris (pH 7.4), 0.32 M sucrose, 2 mM EGTA, 1 mM PMSF, 5 μg/ml aprotinen, 5 μg/ml Pepstatin A, and 1 μg/ml leupeptin. Homogenized cells were centrifuged at 4° C. at 20,000×g for 25 minutes, re-suspended in buffer A and re-centrifuged at 4° C. at 20,000×g for an additional 25 minutes. Total membrane protein was determined with a BCA kit (Pierce, Rockford, Ill.). Membranes were stored at −70° C. at a final membrane protein concentration of approximately 5 mg/ml.
The radioiodinated agonist analog of GnRH, [des-Gly^10,D-Ala^6]GnRH ethylamide (^125I-GnRH-A), was used as the radioligand. […] The reaction mixture was vortexed and incubated for 1 minute at room temperature. After one minute, the mixture was vortexed and allowed to incubate for an additional minute. 2 ml of 0.5 M acetic acid/1% BSA was added to the reaction tube and the mixture was added to a C18 Sep-Pak cartridge. The cartridge was washed with subsequent washes of 5 ml H2O and 5 ml 0.5 M acetic acid and then eluted with 5×1 ml of 60% CH3CN/40% 0.5 M acetic acid. The eluate was diluted with 3× volume of HPLC buffer A (0.1% TFA in H2O) and loaded onto a C18 column. The iodinated product was eluted over 20-25 min with a gradient of 25-100% CH3CN containing 0.1% TFA. The radioactive fractions (750 μl/fraction) were collected into clean polypropylene tubes containing 100 μl of 10% BSA. Fractions were assessed for biological activity by radioligand binding. Specific activity of the radioligand was approximately 2200 Ci/mmol.
Membranes were diluted to 0.01-0.5 mg/ml (depending upon the species of receptor) with assay buffer containing 50 mM HEPES (pH 7.4), 1 mM EDTA, 2.5 mM MgCl2, and 0.1% BSA. Membranes (diluted to utilize similar receptor numbers between assays) were incubated with approximately 0.04-0.06 nM ^125I-GnRH-A in the presence or absence of competing agents (0.1-10,000 nM) in a total volume of 200 μl in 96-well polypropylene plates for 1 hour at room temperature. Assays were stopped by rapid filtration onto 96-well GF/C filters soaked in 0.1% polyethylenimine (PEI) utilizing a Packard 96-well cell harvester. Filters were washed three times with ice-cold PBS (50 mM NaPO4, 0.9% NaCl, 2 mM MgCl2, and 0.02% NaN3, pH 7.4). 35 μl of scintillation cocktail was added to each filter well and filters were counted on a Packard Topcount. Control dose-response curves were generated to GnRH (0.1 nM-100 nM) in each competition binding experiment. Ki values were calculated from IC50 values according to Cheng et al., Biochemical Pharmacol. 22: 3099-3108, 1973. [formula]

[2] = In vitro metabolism: disappearance of parent compound in rat liver microsomes (male, female); assay type: in vitro ADME; conditions: 5 uM compound, 30 minutes 37° C.; for Fem. Rat (FR) % rem. 30′: female rat liver microsomes; for Male Rat (MR) % rem. 30′: male rat liver microsomes
Method: as §1

human GnRH receptors = biological target: T2, human GnRH receptors (Homo sapiens, UniProt P30968); test: Radioligand binding: inhibition of 125I-GnRH-A binding to human GnRH receptor membranes; conditions: HEK 293 cell membranes
T2 construct: expressed in transfected cells; host or cells: HEK 293 cells, stably transfected; membranes
T2 sequence (P30968 1-328): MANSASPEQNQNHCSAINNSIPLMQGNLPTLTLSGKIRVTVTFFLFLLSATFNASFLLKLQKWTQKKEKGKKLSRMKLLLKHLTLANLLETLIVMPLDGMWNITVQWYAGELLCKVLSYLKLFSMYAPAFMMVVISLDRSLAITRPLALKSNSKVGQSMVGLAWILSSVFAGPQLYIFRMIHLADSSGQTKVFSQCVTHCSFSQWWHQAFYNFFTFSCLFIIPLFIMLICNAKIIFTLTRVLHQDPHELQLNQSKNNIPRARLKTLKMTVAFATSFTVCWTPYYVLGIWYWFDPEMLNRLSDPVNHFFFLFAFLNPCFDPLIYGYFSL
In short: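 Membranes from rat pituitaries, or HEK 293 cells stably expressing mouse or human receptor, incubated 1 hour at room temperature with ~0.04-0.06 nM radioligand (HEPES pH 7.4, EDTA, MgCl2, BSA) and competitor at 0.1-10,000 nM. Bound ligand collected by GF/C filtration and counted; Ki derived from IC50 by Cheng-Prusoff.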

[3] = In vitro metabolism: disappearance of parent compound in dog liver microsomes; assay type: in vitro ADME; conditions: 5 uM compound, 30 minutes 37° C.
Method: as §1

[4] = In vitro metabolism: disappearance of parent compound in monkey liver microsomes; assay type: in vitro ADME; conditions: 5 uM compound, 30 minutes 37° C.
Method: as §1

| Human % rem. 30′ [1] | Ki (rat GnRH receptor) | Fem. Rat (FR) % rem. 30′ [2] | Ki (human GnRH receptors) | Dog % rem. 30′ [3] | Monkey % rem. [4] | Male Rat (MR) % rem. 30′ [2] | Structure (SMILES) |
| --- | --- | --- | --- | --- | --- | --- | --- |
| 83% | 4.1 nM | 76% | 6 nM | 34% | 2% | 38% | COc1nc(NCCN2CCOCC2)nc(OC)c1NC(=O)c1ccc(Cc2cc3c(cc2C)C(C)(C)OC3(C)C)o1 [Example D4, N-{4,6-dimethoxy-2-[(2-morpholin-4-ylethyl)amino]pyrimidin-5-yl}-5-[(1,1,3,3,6-pentamethyl-1,3-dihydro-2-benzofuran-5-yl)methyl]-2-furamide] |
| 76% | 1.1 nM | 95% | 6.5 nM | 97% | 66% | 34% | COc1nc(N(CCCN)CCCN)nc(OC)c1NC(=O)c1ccc(Cc2cc3c(cc2C)C(C)(C)OC3(C)C)o1 [Example D16, N-{2-[Bis(3-aminopropyl)amino]-4,6-dimethoxypyrimidin-5-yl}-5-[(1,1,3,3,6-pentamethyl-1,3-dihydro-2-benzofuran-5-yl)methyl]-2-furamide] |
| 77% | 2.6 nM | 79% | 7.3 nM | 66% | 28% | 66% | COc1nc(NCCN(C)C)nc(OC)c1NC(=O)c1ccc(Cc2cc3c(cc2C)C(C)(C)OC3(C)C)o1 [Example D10, N-(2-{[2-(Dimethylamino)ethyl]amino}-4,6-dimethoxypyrimidin-5-yl)-5-[(1,1,3,3,6-pentamethyl-1,3-dihydro-2-benzofuran-5-yl)methyl]-2-furamide] |
| – | 2.6 nM | – | 4 nM | – | – | – | COc1nc(NCc2c(F)cccc2F)nc(OC)c1NC(=O)c1ccc(Cc2cc3c(cc2C)C(C)(C)OC3(C)C)o1 [Example D73, N-{2-[(2,6-difluorobenzyl)amino]-4,6-dimethoxypyrimidin-5-yl}-5-[(1,1,3,3,6-pentamethyl-1,3-dihydro-2-benzofuran-5-yl)methyl]-2-furamide] |
| – | 2.6 nM | – | 4.8 nM | – | – | – | COc1nc(N(CC(C)O)CC(C)O)nc(OC)c1NC(=O)c1ccc(Cc2cc3c(cc2C)C(C)(C)OC3(C)C)o1 (stereo not drawn) [Example D53, N-{2-[Bis(2-hydroxypropyl)amino]-4,6-dimethoxypyrimidin-5-yl)-5-[(1,1,3,3,6-pentamethyl-1,3-dihydro-2-benzofuran-5-yl)methyl]-2-furamide] |
| – | 19 nM | – | 24 nM | – | – | – | COc1nc(N[C@@H](CO)CSCc2ccccc2)nc(OC)c1NC(=O)c1ccc(Cc2cc3c(cc2C)C(C)(C)OC3(C)C)o1 [Example D50, N-(2-{[(1S)-2-(Benzylthio)-1-(hydroxymethyl)ethyl]amino}-4,6-dimethoxypyrimidin-5-yl)-5-[(1,1,3,3,6-pentamethyl-1,3-dihydro-2-benzofuran-5-yl)methyl]-2-furamide] |
| – | 3.1 nM | – | 4.8 nM | – | – | – | COc1nc(NCCN(C)CCCCCO)nc(OC)c1NC(=O)c1ccc(Cc2cc3c(cc2C)C(C)(C)OC3(C)C)o1 [Example D58, N-[2-({2-[(5-Hydroxypentyl)(methyl)amino]ethyl}amino)-4,6-dimethoxypyrimidin-5-yl]-5-[(1,1,3,3,6-pentamethyl-1,3-dihydro-2-benzofuran-5-yl)methyl]-2-furamide] |

Further lines, the compound ahead of its results:

| Structure (SMILES) | Human % rem. 30′ [1] | Ki (rat GnRH receptor) | Fem. Rat (FR) % rem. 30′ [2] | Ki (human GnRH receptors) | Dog % rem. 30′ [3] | Monkey % rem. [4] | Male Rat (MR) % rem. 30′ [2] |
| --- | --- | --- | --- | --- | --- | --- | --- |
| COc1nc(NCCN(C)C(=O)c2ccc(Cc3cc4c(cc3C)C(C)(C)OC4(C)C)o2)nc(OC)c1NC(=O)c1ccc(Cc2cc3c(cc2C)C(C)(C)OC3(C)C)o1 [Example D2] | 76% and 83% | 11 nM | 84% and 82% | 14 nM | – | – | – |
| COc1nc(N(CCCN2CCCCC2)CCCN2CCCCC2)nc(OC)c1NC(=O)c1ccc(Cc2cc3c(cc2C)C(C)(C)OC3(C)C)o1 [Example D21, N-{2-[Bis(3-piperidin-1-ylpropyl)amino]-4,6-dimethoxypyrimidin-5-yl}-5-[(1,1,3,3,6-pentamethyl-1,3-dihydro-2-benzofuran-5-yl)methyl]-2-furamide] | 89% | 1.3 nM | 89% | 3.3 nM | 67% | 85% | 87% |
| COc1nc(N2CCN(CCN)CC2)nc(OC)c1NC(=O)c1ccc(Cc2cc3c(cc2C)C(C)(C)OC3(C)C)o1 [Example D15, N-{2-[4-(2-Aminoethyl)piperazin-1-yl]-4,6-dimethoxypyrimidin-5-yl}-5-[(1,1,3,3,6-pentamethyl-1,3-dihydro-2-benzofuran-5-yl)methyl]-2-furamide] | – | 2.4 nM | – | 3.5 nM | – | – | – |
| COc1nc(N2CCC3CNC(=O)C3C2)nc(OC)c1NC(=O)c1ccc(Cc2cc3c(cc2C)C(C)(C)OC3(C)C)o1 (stereo not drawn) [Example D40, N-[4,6-Dimethoxy-2-(3-oxooctahydro-5H-pyrrolo[3,4-c]pyridin-5-yl)pyrimidin-5-yl]-5-[(1,1,3,3,6-pentamethyl-1,3-dihydro-2-benzofuran-5-yl)methyl]-2-furamide] | – | 30 nM | – | 27 nM | – | – | – |
| COc1nc(NCCCN2CCOCC2)nc(OC)c1NC(=O)c1ccc(Cc2c(C)cc(C)c3c2OCC3(C)C)o1 [Example H6, N-{4,6-Dimethoxy-2-[(3-morpholin-4-ylpropyl)amino]-pyrimidin-5-yl}-5-[(3,3,4,6-tetramethyl-2,3-dihydro-1-benzofuran-7-yl)methyl]-2-furamide] | – | 12 nM | – | 12 nM | – | – | – |
| COc1nc(NCCCN(C)C)nc(OC)c1NC(=O)c1ccc(Cc2c(C)cc3c(c2C)C(C)(C)CCO3)o1 [Example I3, N-(2-{[3-(Dimethylamino)propyl]amino}-4,6-dimethoxypyrimidin-5-yl)-5-[(4,4,5,7-tetramethyl-3,4-dihydro-2H-chromen-6-yl)methyl]-2-furamide] | – | 22 nM | – | 36 nM | – | – | – |
